The values that follow come from PMC6048161, “Inward-facing conformation of L-ascorbate transporter suggests an elevator mechanism” (Cell Discovery, 2018).

SMILES strings stand for the structures.

The target in assay [1] is T1, ecUlaA (Escherichia coli, UniProt P39301, T86P).
T1 construct: gene ulaA; homologue genes cloned in pET21b with C-terminal His8, E. coli C43(DE3)
The experiment in a line: isothermal titration calorimetry. It is filed as binding.

Assay [2] has as its target T2, ecUlaA (Escherichia coli, UniProt P39301).
T2 construct: gene ulaA; homologue genes cloned in pET21b with C-terminal His8, E. coli C43(DE3)
The assay is described as follows: isothermal titration calorimetry. The note with it: ITC performed as in ref. 11; detergent-purified protein; read-out: binding affinity; cited from earlier work.

As to `O=C1O[C@H]([C@@H](O)CO)C(O)=C1O` [vitamin C], the Kd was around 26.5 µM at ecUlaA [1] and 6.1 ± 0.9 µM on ecUlaA [2].
